Assay results published in PubChem BioAssay (NCI).
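The compound was tested at five concentrations on cells cultured in 96-well plates, with a 48-hour exposure period. TGI: total growth inhibition.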

How the values were obtained:
Assay in all cases: NCI tumour cell line growth inhibition, 48 h
[1] = test system: LOX IMVI melanoma
[2] = test system: CAKI-1 renal
[3] = test system: A498 renal
[4] = test system: SNB-75 CNS
[5] = test system: MDA-MB-231 breast
[6] = test system: OVCAR-5 ovarian
[7] = test system: PC-3 prostate
[8] = test system: RXF 393 renal
[9] = test system: SN12C renal
[10] = test system: NCI-H226 lung
[11] = test system: MOLT-4 leukemia
[12] = test system: MDA-MB-435
[13] = test system: MALME-3M melanoma
[14] = test system: HCT-15 colon
[15] = test system: MCF7 breast
[16] = test system: OVCAR-4 ovarian
[17] = test system: NCI/ADR-RES ovarian
[18] = test system: T-47D breast
[19] = test system: SK-MEL-28 melanoma
[20] = test system: HT29 colon
[21] = test system: UACC-62 melanoma
[22] = test system: OVCAR-8 ovarian
[23] = test system: CCRF-CEM leukemia
[24] = test system: DU-145 prostate
[25] = test system: COLO 205 colon
[26] = test system: UO-31 renal
[27] = test system: SF-295 CNS
[28] = test system: IGROV1 ovarian
[29] = test system: SR leukemia
[30] = test system: HCC-2998 colon
[31] = test system: HL-60(TB) leukemia
[32] = test system: EKVX NSCLC
[33] = test system: U251 CNS
[34] = test system: SNB-19 CNS
[35] = test system: SF-539 CNS
[36] = test system: RPMI-8226 leukemia
[37] = test system: NCI-H23 lung
[38] = test system: KM12 colon
[39] = test system: TK-10 renal
[40] = test system: OVCAR-3 ovarian
[41] = test system: MDA-N
[42] = test system: HS 578T breast
[43] = test system: NCI-H522 lung
[44] = test system: NCI-H460 lung
[45] = test system: SW-620 colon
[46] = test system: K-562 leukemia
[47] = test system: SF-268 CNS
[48] = test system: HOP-62 NSCLC
[49] = test system: HCT-116 colon
[50] = test system: SK-MEL-5 melanoma
[51] = test system: ACHN renal
[52] = test system: SK-MEL-2 melanoma
[53] = test system: M14 melanoma
[54] = test system: SK-OV-3 ovarian
[55] = test system: A549 NSCLC
[56] = test system: UACC-257 melanoma
[57] = test system: BT-549 breast
[58] = test system: 786-0 renal
[59] = test system: HOP-92 NSCLC

In the case of `COc1ccc(CN2C(=O)C(=O)N(C)C2=O)c2ccccc12`, the TGI [1] is reported as > 10 µM, the TGI [2] is reported as > 10 µM and the TGI [3] is reported as > 10 µM. The TGI [4] was > 10 µM, the TGI [5] was > 10 µM and the TGI [6] was > 10 µM. The TGI [7] was > 10 µM, the TGI [8] was > 10 µM and the TGI [9] was > 10 µM. For the same molecule, the TGI [10] was > 10 µM, the TGI [11] was > 10 µM and the TGI [12] was > 10 µM. The TGI [13] was > 10 µM, the TGI [14] was > 10 µM and the TGI [15] was > 10 µM. For the same molecule, the TGI [16] was > 10 µM, the TGI [17] was > 10 µM and the TGI [18] was > 10 µM. The TGI [19] was > 10 µM, the TGI [20] was > 10 µM and the TGI [21] was > 10 µM. The TGI [22] was > 10 µM, the TGI [23] was > 10 µM and the TGI [24] was > 10 µM. The TGI [25] was > 10 µM, the TGI [26] was > 10 µM and the TGI [27] was > 10 µM. The TGI [28] was > 10 µM, the TGI [29] was > 10 µM and the TGI [30] was > 10 µM. The TGI [31] was > 10 µM, the TGI [32] was > 10 µM and the TGI [33] was > 10 µM. For the same molecule, the TGI [34] was > 10 µM, the TGI [35] was > 10 µM and the TGI [36] was > 10 µM. For the same molecule, the TGI [37] was > 10 µM, the TGI [38] was > 10 µM and the TGI [39] was > 10 µM. For the same molecule, the TGI [40] was > 10 µM, the TGI [41] was > 10 µM and the TGI [42] was > 10 µM. For the same molecule, the TGI [43] was > 10 µM, the TGI [44] was > 10 µM and the TGI [45] was > 10 µM. The TGI [46] was > 10 µM, the TGI [47] was > 10 µM and the TGI [48] was > 10 µM. For the same molecule, the TGI [49] was > 10 µM, the TGI [50] was > 10 µM and the TGI [51] was > 10 µM. For the same molecule, the TGI [52] was > 10 µM, the TGI [53] was > 10 µM and the TGI [54] was > 10 µM. For the same molecule, the TGI [55] was > 10 µM.

For `CCOC(=O)c1c(NC(=S)Nc2ccc(C)cc2)sc2c1CCN(C)C2`, the TGI [2] was > 100 µM, the TGI [3] was > 100 µM and the TGI [4] was 0.0946 µM. For the same molecule, the TGI [5] was > 100 µM, the TGI [6] was > 100 µM and the TGI [7] was > 100 µM. The TGI [8] was > 100 µM, the TGI [9] was > 100 µM and the TGI [56] was > 100 µM. For the same molecule, the TGI [10] was > 100 µM, the TGI [11] was > 100 µM and the TGI [14] was > 100 µM. For the same molecule, the TGI [15] was > 100 µM, the TGI [17] was > 100 µM and the TGI [18] was > 100 µM. For the same molecule, the TGI [20] was > 100 µM, the TGI [21] was > 100 µM and the TGI [22] was > 100 µM. For the same molecule, the TGI [23] was > 100 µM, the TGI [24] was > 100 µM and the TGI [25] was > 100 µM. The TGI [26] was > 100 µM, the TGI [27] was > 100 µM and the TGI [28] was > 100 µM. The TGI [31] was > 100 µM, the TGI [32] was > 100 µM and the TGI [34] was > 100 µM. The TGI [35] was > 100 µM, the TGI [36] was > 100 µM and the TGI [37] was > 100 µM. For the same molecule, the TGI [38] was > 100 µM, the TGI [39] was > 100 µM and the TGI [40] was > 100 µM. The TGI [41] was > 100 µM, the TGI [42] was > 100 µM and the TGI [57] was > 100 µM. The TGI [44] was > 100 µM, the TGI [46] was > 100 µM and the TGI [47] was > 100 µM. The TGI [48] was > 100 µM, the TGI [58] was > 100 µM and the TGI [49] was > 100 µM. For the same molecule, the TGI [50] was > 100 µM, the TGI [51] was > 100 µM and the TGI [52] was > 100 µM. For the same molecule, the TGI [53] was > 100 µM and the TGI [55] was > 100 µM.

`C=C1CC=CC(C)(C)C1C/C=C(\C)C(O)CBr` (centres undefined) was tested, and the TGI [1] was 53.5 µM, the TGI [2] was 54.1 µM and the TGI [3] was > 100 µM. The TGI [5] was > 100 µM, the TGI [6] was > 100 µM and the TGI [7] was > 100 µM. The TGI [8] was > 100 µM, the TGI [9] was > 100 µM and the TGI [56] was > 100 µM. For the same molecule, the TGI [10] was > 100 µM, the TGI [11] was > 100 µM and the TGI [12] was > 100 µM. For the same molecule, the TGI [14] was > 100 µM, the TGI [15] was > 100 µM and the TGI [16] was > 100 µM. The TGI [17] was 63.2 µM, the TGI [19] was > 100 µM and the TGI [20] was > 100 µM. For the same molecule, the TGI [21] was > 100 µM, the TGI [22] was > 100 µM and the TGI [23] was > 100 µM. The TGI [24] was > 100 µM, the TGI [25] was > 100 µM and the TGI [59] was > 100 µM. For the same molecule, the TGI [26] was > 100 µM, the TGI [27] was > 100 µM and the TGI [28] was > 100 µM. The TGI [29] was 88.5 µM, the TGI [30] was > 100 µM and the TGI [31] was > 100 µM. The TGI [32] was > 100 µM, the TGI [33] was > 100 µM and the TGI [34] was > 100 µM. The TGI [35] was > 100 µM, the TGI [36] was 66.8 µM and the TGI [37] was > 100 µM. The TGI [38] was > 100 µM, the TGI [39] was > 100 µM and the TGI [41] was > 100 µM. For the same molecule, the TGI [42] was > 100 µM, the TGI [43] was 23.2 µM and the TGI [57] was > 100 µM. For the same molecule, the TGI [44] was > 100 µM, the TGI [45] was 97.4 µM and the TGI [46] was > 100 µM. The TGI [47] was > 100 µM, the TGI [48] was > 100 µM and the TGI [58] was > 100 µM. The TGI [49] was > 100 µM, the TGI [50] was > 100 µM and the TGI [51] was > 100 µM. For the same molecule, the TGI [52] was > 100 µM, the TGI [53] was > 100 µM and the TGI [54] was > 100 µM. For the same molecule, the TGI [55] was > 100 µM.

With `Cc1cccc(NC(Nc2cccc(C)c2)=C(C(Cl)=C(Cl)Cl)[N+](=O)[O-])c1` the TGI [1] was 28.7 µM, the TGI [2] was 35.6 µM and the TGI [3] was > 86 µM. The TGI [4] was > 68.6 µM, the TGI [5] was 17 µM and the TGI [6] was > 72.1 µM. For the same molecule, the TGI [7] was > 92.9 µM, the TGI [8] was 22.8 µM and the TGI [9] was 24 µM. The TGI [56] was > 53.4 µM, the TGI [10] was 22.5 µM and the TGI [11] was > 20 µM. The TGI [12] was 28.7 µM, the TGI [13] was 29 µM and the TGI [14] was 33.1 µM. The TGI [15] was > 100 µM, the TGI [16] was > 82 µM and the TGI [17] was 35.4 µM. The TGI [18] was > 53 µM, the TGI [19] was 41.2 µM and the TGI [20] was > 54 µM. For the same molecule, the TGI [21] was 40.6 µM, the TGI [22] was 27.6 µM and the TGI [23] was > 100 µM. For the same molecule, the TGI [24] was > 57.5 µM, the TGI [25] was 28.3 µM and the TGI [26] was 26.4 µM. For the same molecule, the TGI [27] was > 66.8 µM, the TGI [28] was 20.3 µM and the TGI [29] was 42.8 µM. For the same molecule, the TGI [30] was > 57.8 µM, the TGI [32] was > 59 µM and the TGI [33] was 36.3 µM. The TGI [34] was > 63 µM, the TGI [35] was 23.4 µM and the TGI [36] was > 100 µM. It also gave a TGI [37] of 23.6 µM, a TGI [38] of 49.5 µM and a TGI [39] of 28.5 µM. The TGI [40] was 44.6 µM, the TGI [41] was > 35.1 µM and the TGI [42] was 11.2 µM. The TGI [43] was 21 µM, the TGI [57] was 26.3 µM and the TGI [44] was > 62.5 µM. The TGI [45] was 34.2 µM, the TGI [46] was > 100 µM and the TGI [47] was 30.6 µM. For the same molecule, the TGI [48] was 41.7 µM, the TGI [58] was 44.3 µM and the TGI [49] was > 46.4 µM. It also gave a TGI [50] of 19.6 µM, a TGI [51] of 43.1 µM and a TGI [52] of 48.5 µM. For the same molecule, the TGI [53] was > 52 µM, the TGI [54] was > 100 µM and the TGI [55] was > 68 µM.
